Laboratory results from ChEMBL document CHEMBL4334494, “Recent advances in the targeting of human DNA ligase I as a potential new strategy for cancer treatment” (Eur J Med Chem, 2019).

How the values were obtained:
DNA ligase 1 [1] = target: T1, DNA ligase 1 (Homo sapiens, UniProt P18858); test: Inhibition of human DNA ligase 1 at 50 uM using 52-mer DNA/25-mer DNA/27-mer DNA as substrate by fluorescence assay relative to control
DNA ligase 1 [2] = target: T1, DNA ligase 1; test: Inhibition of human DNA ligase 1 at 25 uM using nicked DNA as substrate after 30 mins relative to control
DNA ligase 1 [3] = target: T1, DNA ligase 1; test: Inhibition of human DNA ligase 1 expressed in Escherichia coli BL21DE3RP cells at 50 uM using 52-mer DNA/25-mer DNA/27-mer DNA as substrate after 30 mins by Cyanin3 dye-based fluorescence assay relative to control
MDA-MB-231 = test: Antiproliferative activity against human MDA-MB-231 cells at 100 uM relative to control; type: functional
HCT-116 = test: Antiproliferative activity against human HCT116 cells at 100 uM relative to control; type: functional
DLD-1 = test: Antiproliferative activity against human DLD1 cells at 100 uM relative to control; type: functional
HEK293 = test: Cytotoxicity against HEK293 cells at 100 uM relative to control; type: cell-based; details: human, hek293, 100 µM
A549 = test: Antiproliferative activity against human A549 cells at 100 uM relative to control; type: functional
HepG2 = test: Antiproliferative activity against human HepG2 cells at 100 uM relative to control; type: functional

T1 sequence (P18858 whole entry): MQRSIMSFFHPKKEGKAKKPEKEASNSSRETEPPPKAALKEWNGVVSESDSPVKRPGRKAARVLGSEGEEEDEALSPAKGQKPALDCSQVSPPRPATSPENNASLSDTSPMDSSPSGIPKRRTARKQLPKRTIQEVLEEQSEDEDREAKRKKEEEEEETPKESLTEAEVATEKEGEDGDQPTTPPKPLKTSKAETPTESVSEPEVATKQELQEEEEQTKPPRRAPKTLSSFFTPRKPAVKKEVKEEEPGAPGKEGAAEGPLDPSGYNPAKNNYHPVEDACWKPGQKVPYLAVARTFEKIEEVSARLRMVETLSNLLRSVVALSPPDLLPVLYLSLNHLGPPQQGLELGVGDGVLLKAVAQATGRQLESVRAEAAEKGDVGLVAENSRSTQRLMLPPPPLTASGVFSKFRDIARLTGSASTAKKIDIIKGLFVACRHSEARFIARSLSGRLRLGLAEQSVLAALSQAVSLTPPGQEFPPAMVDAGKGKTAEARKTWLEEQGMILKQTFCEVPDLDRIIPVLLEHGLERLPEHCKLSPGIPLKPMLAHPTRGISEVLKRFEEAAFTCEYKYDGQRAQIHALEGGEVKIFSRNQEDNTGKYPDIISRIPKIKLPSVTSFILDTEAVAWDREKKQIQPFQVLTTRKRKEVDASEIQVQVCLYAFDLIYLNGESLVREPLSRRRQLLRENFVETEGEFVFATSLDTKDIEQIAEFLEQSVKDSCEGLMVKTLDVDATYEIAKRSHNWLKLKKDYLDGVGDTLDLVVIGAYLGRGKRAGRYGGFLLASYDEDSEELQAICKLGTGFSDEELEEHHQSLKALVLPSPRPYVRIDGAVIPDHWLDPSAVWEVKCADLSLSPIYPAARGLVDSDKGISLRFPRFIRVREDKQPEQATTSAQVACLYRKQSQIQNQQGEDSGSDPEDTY

Cc1cc(NC(=O)CN2CCN(C(=O)OC(C)(C)C)CC2)c2cc(NC(=O)Nc3ccc(C)c(Cl)c3)ccc2n1
inhibition (DNA ligase 1 [1]): 61.1%

COc1cccc2c1ccc1c(/C=C/c3ccccc3)cc(=O)oc12
inhibition (DNA ligase 1 [2]): > 50%

Cc1ccc(/C=C2\CN(C(=S)NCc3ccccc3)C/C(=C\c3ccc(C)cc3)C2=O)cc1
inhibition (DNA ligase 1 [3]): > 75%

Cc1cccc2c1ccc1c(/C=C/c3ccccc3)cc(=O)oc12
inhibition (DNA ligase 1 [2]): < 50%

COc1cccc(OC)c1/C=C/c1cc(=O)oc2c1ccc1c(OC)cccc12
inhibition (DNA ligase 1 [2]): < 50%

COc1ccc(OC)c(/C=C/c2cc(=O)oc3c2ccc2c(OC)cccc23)c1
inhibition (DNA ligase 1 [2]): < 50%

COc1ccc(/C=C/c2cc(=O)oc3c2ccc2ccccc23)cc1OC
inhibition (DNA ligase 1 [2]): < 50%

COc1cc(/C=C/c2cc(=O)oc3c2ccc2c(OC)cccc23)cc(OC)c1OC
inhibition (DNA ligase 1 [2]): < 50%

COc1cccc2c1ccc1c(/C=C/c3ccc(C#N)cc3)cc(=O)oc12
inhibition (DNA ligase 1 [2]): > 90%

Cc1ccc(/C=C2\CN(C(=S)Nc3ccccc3)C/C(=C\c3ccc(C)cc3)C2=O)cc1
inhibition (DNA ligase 1 [3]): > 75%

COc1ccc(OC)c(/C=C/c2cc(=O)oc3c2ccc2c(C)cccc23)c1
inhibition (DNA ligase 1 [2]): < 50%

Cc1cccc2c1ccc1c(/C=C/c3ccc([N+](=O)[O-])cc3)cc(=O)oc12
inhibition (DNA ligase 1 [2]): > 90%

COc1ccc(/C=C/c2cc(=O)oc3c2ccc2c(C)cccc23)c(OC)c1
inhibition (DNA ligase 1 [2]): > 90%

CCOC(=O)C1=C(C)NC(=O)NC1c1cc(/C=N/NC(=S)NC)c(O)c(C(C)(C)C)c1 (stereo unspecified)
inhibition at 100 µM (MDA-MB-231): > 80% | inhibition at 100 µM (HCT-116): > 80% | inhibition at 100 µM (DLD-1): > 80% | Activity (HEK293): > 80% | inhibition at 100 µM (A549): > 80% | inhibition at 100 µM (HepG2): > 80%

COc1ccccc1/C=C/c1cc(=O)oc2c1ccc1c(C)cccc12
inhibition (DNA ligase 1 [2]): < 50%

COc1cc([N+](=O)[O-])ccc1NC(=S)NCC12C=CC(O1)C1C(=O)N(c3ccc(C)cc3)C(=O)C12 (stereo unspecified)
inhibition (DNA ligase 1 [1]): 98.2%

CCOC(=O)N1CCN(CC(=O)Nc2cc(C)nc3ccc(NC(=O)Nc4ccc(C)c(Cl)c4)cc23)CC1
inhibition (DNA ligase 1 [1]): 98.6%

CCOC(=O)C1=C(C)NC(=O)NC1c1cc(/C=N/NC(=O)Nc2cccc(OC)c2)c(O)c(C(C)(C)C)c1 (stereo unspecified)
inhibition at 100 µM (MDA-MB-231): > 80% | inhibition at 100 µM (HCT-116): > 80% | inhibition at 100 µM (DLD-1): > 80% | Activity (HEK293): > 80% | inhibition at 100 µM (A549): > 80% | inhibition at 100 µM (HepG2): > 80%

COc1ccc(NC(=O)Nc2ccc3nc(C)cc(NC(=O)c4ccccc4Cl)c3c2)cc1
inhibition (DNA ligase 1 [1]): 12.2%

CCOC(=O)C1=C(C)NC(=O)NC1c1cc(/C=N/NC(=S)Nc2ccc(Cl)cc2)c(O)c(C(C)(C)C)c1 (stereo unspecified)
inhibition at 100 µM (MDA-MB-231): > 80% | inhibition at 100 µM (HCT-116): > 80% | inhibition at 100 µM (DLD-1): > 80% | Activity (HEK293): > 80% | inhibition at 100 µM (A549): > 80% | inhibition at 100 µM (HepG2): > 80%

CCOC(=O)C1=C(C)NC(=O)NC1c1cc(/C=N/NC(N)=S)c(O)c(C(C)(C)C)c1 (stereo unspecified)
inhibition at 100 µM (MDA-MB-231): > 80% | inhibition at 100 µM (HCT-116): > 80% | inhibition at 100 µM (DLD-1): > 80% | Activity (HEK293): > 80% | inhibition at 100 µM (A549): > 80% | inhibition at 100 µM (HepG2): > 80%

COc1ccc(/C=C2\CN(C(=S)NCCc3ccccc3)C/C(=C\c3ccc(OC)cc3)C2=O)cc1
inhibition (DNA ligase 1 [3]): > 75%

CCOC(=O)C1=C(C)NC(=O)NC1c1cc(/C=N/NC(=O)Nc2ccc(F)cc2)c(O)c(C(C)(C)C)c1 (stereo unspecified)
inhibition at 100 µM (MDA-MB-231): > 80% | inhibition at 100 µM (HCT-116): > 80% | inhibition at 100 µM (DLD-1): > 80% | Activity (HEK293): > 80% | inhibition at 100 µM (A549): > 80% | inhibition at 100 µM (HepG2): > 80%

CCOC(=O)C1=C(C)NC(=O)NC1c1cc(/C=N/NC(N)=O)c(O)c(C(C)(C)C)c1 (stereo unspecified)
inhibition at 100 µM (MDA-MB-231): < 80% | inhibition at 100 µM (HCT-116): < 80% | inhibition at 100 µM (DLD-1): < 80% | Activity (HEK293): < 80% | inhibition at 100 µM (A549): < 80% | inhibition at 100 µM (HepG2): < 80%

CCOC(=O)C1=C(C)NC(=S)NC1c1cc(C)c(O)c(/C=N/NC(=O)Nc2ccc(Cl)cc2)c1 (stereo unspecified)
inhibition at 100 µM (MDA-MB-231): > 80% | inhibition at 100 µM (HCT-116): > 80% | inhibition at 100 µM (DLD-1): > 80% | Activity (HEK293): > 80% | inhibition at 100 µM (A549): > 80% | inhibition at 100 µM (HepG2): > 80%

CCOC(=O)C1=C(C)NC(=S)NC1c1cc(/C=N/NC(=O)Nc2ccc(Cl)cc2)c(O)c(C(C)(C)C)c1 (stereo unspecified)
inhibition at 100 µM (MDA-MB-231): < 80% | inhibition at 100 µM (HCT-116): < 80% | inhibition at 100 µM (DLD-1): < 80% | Activity (HEK293): < 80% | inhibition at 100 µM (A549): < 80% | inhibition at 100 µM (HepG2): < 80%

CN(C)c1ccc(/C=C/c2cc(=O)oc3c2ccc2ccccc23)cc1
inhibition (DNA ligase 1 [2]): < 50%

COc1ccc(/C=C/c2cc(=O)oc3c2ccc2c(OC)cccc23)cc1
inhibition (DNA ligase 1 [2]): < 50%

CC(C)c1ccc(/C=C2\CN(C(=S)NCc3ccccc3)C/C(=C\c3ccc(C(C)C)cc3)C2=O)cc1
inhibition (DNA ligase 1 [3]): > 75%

CC(C)c1ccc(/C=C2\CN(c3nc(-c4ccccc4)cs3)C/C(=C\c3ccc(C(C)C)cc3)C2=O)cc1
inhibition (DNA ligase 1 [3]): > 75%

CCOC(=O)C1=C(C)NC(=S)NC1c1cc(/C=N/NC(=S)Nc2ccc(Cl)cc2)c(O)c(C(C)(C)C)c1 (stereo unspecified)
inhibition at 100 µM (MDA-MB-231): < 80% | inhibition at 100 µM (HCT-116): < 80% | inhibition at 100 µM (DLD-1): < 80% | Activity (HEK293): < 80% | inhibition at 100 µM (A549): < 80% | inhibition at 100 µM (HepG2): < 80%
